This assay concerns the target T1, COX-1 (Ovis aries, UniProt P05979).
T1 construct: purchased Cayman Chemical Co. 560131
T1 sequence (P05979 25-600): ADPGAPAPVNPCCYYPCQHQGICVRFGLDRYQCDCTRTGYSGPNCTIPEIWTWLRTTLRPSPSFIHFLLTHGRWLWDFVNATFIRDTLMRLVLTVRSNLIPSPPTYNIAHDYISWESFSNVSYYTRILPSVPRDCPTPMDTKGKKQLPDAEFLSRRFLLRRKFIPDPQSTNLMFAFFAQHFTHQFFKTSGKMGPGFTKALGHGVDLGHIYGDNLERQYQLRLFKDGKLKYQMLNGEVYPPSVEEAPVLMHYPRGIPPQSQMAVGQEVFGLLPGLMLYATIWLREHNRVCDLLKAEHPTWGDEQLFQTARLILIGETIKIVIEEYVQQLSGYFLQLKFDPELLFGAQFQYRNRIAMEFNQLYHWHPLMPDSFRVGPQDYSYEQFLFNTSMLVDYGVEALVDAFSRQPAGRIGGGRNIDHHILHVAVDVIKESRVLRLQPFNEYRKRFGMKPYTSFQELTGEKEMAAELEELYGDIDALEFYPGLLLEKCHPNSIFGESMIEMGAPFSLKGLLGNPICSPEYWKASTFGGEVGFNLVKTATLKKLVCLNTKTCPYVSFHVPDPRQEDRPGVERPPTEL
As to the kind of experiment: COX-1 enzyme immunoassay (Cayman inhibitor screening kit). The assay is classed as biochemical. The protocol:
Principally, the catalytic activity of COX-1/2 is slowed down in the presence of its inhibitor and quantitatively, it is inversely proportional to the amount of prostaglandin produced in the presence of inhibitor.
The enzyme inhibition screening assay kits for COX-1/2 and 5-LOX with item no. […] The 100% initial activity tubes for the two enzymes contained 10 µL heme and 10 µL of the enzyme in 160 µL reaction buffer. Then 10 µL inhibitor (compound of above mentioned concentrations) was added to the inhibitor tubes for the two enzymes and 10 µL of vehicle (DMSO) was added to 100% initial activity and background tubes. All the tubes were incubated for 10 min at 37 °C and the reaction was started by adding 10 µL arachidonic acid to all the reaction tubes. After incubation of the reaction vials for 2 min at 37 °C, the enzyme catalysis was stopped by adding 30 µL saturated stannous chloride solution to each test tube and solutions were kept at 0–4 °C. For EIA (enzyme immunoassay) procedure: the EIA buffers and assay specific reagents were prepared as written in the manual. In the COX dilutions, two test tubes labelled as BC1 and BC2 were taken to prepare background samples. Each tube contained 990 µL of EIA buffer and 10 µL of background COX-1 for BC1 and 10 µL of background COX-2 for BC2. The samples for 100% initial activity were diluted in three vials labelled IA1, IA2 and IA3 for each enzyme. IA1 contained 990 µL EIA buffer and 10 µL enzyme, IA2 has 950 µL buffer and 50 µL solution of IA1 (1:2000 dilution of original sample) and IA3 carried 500 µL of buffer and 500 µL of IA2 solution (1:4000 dilution of original sample). Each solution was thoroughly mixed. Solutions of IA2 and IA3 were used for the assaying. […] C2 contained 950 µL buffer and 50 µL solution of C1 (1:2000 dilution of original sample) and vial C3 was charged with 500 µL buffer and 500 µL solution from C2 (1: 4000 dilution of original sample). Only C2 and C3 were run in the assay. After all the reaction dilutions, these were then subjected to 96 wells plate. The wells were divided as: 2 blank wells, 2 NSB wells (non-specific binding), 3 B0 wells (maximum binding), one TA well (total activity), 16 wells for standards (S1–S8 in repeat), 2 BC1 and 2 BC2 wells. Compounds (inhibitors) were put in all the other wells. The sequence for the addition of reagents onto the plate was as per the protocol of the assay kit. […] For developing the plate; it was emptied and washed with wash buffer 5 times followed by the addition of 200 µL Ellman’s reagent to each well. 5 µL tracer was added to the TA well. Then the plate was covered and left for 60 mins for development in dark. After the respective time period the cover was removed and the plate was read at 420 nm. %B/Bo (i.e. % sample or maximum bound) value for standards S1-S8 and each sample was determined from the absorbance values obtained according to the calculation given in the protocol. The amount of prostaglandins formed during the enzymatic reaction was calculated from the values of %B/Bo for all the compounds at all concentrations with the help of the standard curve (plotted between %B/Bo of standards and raw data given in the protocol). Then the prostaglandin formed at each concentration of all the compounds and percentage inhibition values were calculated. The graph between percent inhibition of the enzyme and corresponding concentration of the compound provided IC50 values for the compounds.

Setting [1] is: enzyme immunoassay, average of three experiments, read-out: IC50 COX-1.

Like-named read-outs stand apart in the source and are kept apart here.

By IC50 is commonly meant the concentration that gives 50% inhibition.

As for `O=C1Nc2ccccc2C1=Cc1cn(C[C@H](O)Cn2c3ccccc3c(=O)c3ccccc32)c2ccccc12` [(S)-3c], under setting [1], the IC50 came out at 60 ± 3 µM.
Consider `O=C1NC(=O)C(=Cc2cn(CCCn3c4ccccc4c(=O)c4ccccc43)c3ccccc23)C(=O)N1` [Compound 4a], for which the IC50 worked out at 30 ± 1.8 µM.
Turning to `O=C1Nc2ccccc2C1=Cc1cn(CCCn2c3ccccc3c(=O)c3ccccc32)c2ccccc12` [Compound 4c], under setting [1], the IC50 was determined as 4 ± 0.32 µM.

The values above are taken from article PMC6030096, “Synergy of Physico-chemical and Biological Experiments for Developing a Cyclooxygenase-2 Inhibitor” (Scientific Reports, 2018).
